Measurements published in the NIST ThermoML archive (doi:10.1007/s10765-011-1111-y).
Several values for one entry are separate records, joined by “and”; a condition that tells them apart may be missing. Equal values may be shown once. Numbers after ± are expanded uncertainties.

Test: mn = molality of the nth substance listed, in mol/kg
Conditions: 101 kPa, Liquid, m1 = 1

viscosity (303.15 K)	viscosity (308.15 K) [mPa·s]	viscosity (313.15 K) [mPa·s]	viscosity (318.15 K) [mPa·s]	viscosity (323.15 K) [mPa·s]	Compound
0.975 ± 0.025 mPa·s	0.8864 ± 0.023	0.805 ± 0.021	0.719 ± 0.019	0.655 ± 0.018	CC(=O)[O-].[K+] [potassium ethanoate] + O
1.095 ± 0.028 mPa·s	1.005 ± 0.026	0.9052 ± 0.024	0.801 ± 0.021	0.721 ± 0.019	CC(=O)[O-].[Na+] [sodium ethanoate] + O

Compound	viscosity (303.15 K)	viscosity (308.15 K) [mPa·s]	viscosity (313.15 K) [mPa·s]	viscosity (318.15 K) [mPa·s]	viscosity (323.15 K) [mPa·s]
CC(=O)[O-].CC(=O)[O-].[Ca+2] [calcium acetate] + O	1.545 ± 0.038 mPa·s and 1.563 ± 0.038 mPa·s	1.412 ± 0.035	1.265 ± 0.032	1.127 ± 0.029	0.999 ± 0.026
